# What was measured:
# [1] = system: wild-type (WT) SARS-CoV-2; type: cell-based; conditions: plaque reduction assay
# zeta potential = type: physicochemical
# Procedure: Overall negative charge of the polymers owing to sulfate groups was confirmed by very high negative value of zeta potential (cf. Table 9). To check the morphology of P1 in aqueous solution, cryo-electron microscopy (cryo-EM) was performed. In accordance with the inventors' hypothesis, worm-like defined fibers having a length between approximately 150 nm and 215 nm were observed. Tomography of the sample was measured to calculate accurate length and width of the fibers.
substance,measurement,setting,value
Heparin,IC50 (μg/mL) against SARS-CoV-2,[1],1383.0 ± 255.1 µg/mL
same,IC50,[1]; read-out: IC50 (μM) against SARS-CoV-2,92.3 ± 19.4 µM
same,ξ potential (mV),zeta potential,−31.2 ± 3.9 mV

# From US20250368767A1, “POLYMER FOR INHIBITING SARS-COV-2 AND OTHER PATHOGENS” (FREIE UNIVERSITÄT BERLIN, priority 2022, published 2025)
